# Experimental data as given in the supplement of paper PMC4862054.
# Experiments:
# Settings in all cases: incubation time: 72 h
# BT-474 [1] = experiment: normalised response (% of control), CellTiter-Glo; higher = more viable cells (100 = DMSO, 0 = benzethonium chloride kill control)
# Method in brief: (§1)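 The table gives the normalised signal for a single concentration in each entry. Breast cancer cell lines were seeded (20 µl suspension) into 384-well plates holding compound at 5 concentrations in 10-fold steps over a compound-specific 10,000-fold range and incubated 72 h, then read for CellTox Green fluorescence (485/520 nm) and CellTiter-Glo luminescence. Normalisation on each plate used 0.1 % DMSO (100) and a positive kill control (0).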
# BT-549 [2] = experiment: as above
# Method in brief: as §1
# CAL-120 [3] = experiment: as above
# Method in brief: as §1
# CAL-148 [4] = experiment: as above
# Method in brief: as §1
# CAL-51 [5] = experiment: as above
# Method in brief: as §1
# CAL-85-1 [6] = experiment: as above
# Method in brief: as §1
# DU-4475 [7] = experiment: as above
# Method in brief: as §1
# HCC1143 [8] = experiment: as above
# Method in brief: as §1
# HCC1599 [9] = experiment: as above
# Method in brief: as §1
# HCC1937 [10] = experiment: as above
# Method in brief: as §1
# HDQ-P1 [11] = experiment: as above
# Method in brief: as §1
# Hs578T [12] = experiment: as above
# Method in brief: as §1
# MCF-10A = experiment: as above
# Method in brief: as §1
# MDA-MB-231 [13] = experiment: as above
# Method in brief: as §1
# MDA-MB-436 [14] = experiment: as above
# Method in brief: as §1
# MDA-MB-453 [15] = experiment: as above
# Method in brief: as §1
# MDA-MB-468 [16] = experiment: as above
# Method in brief: as §1
# MFM-223 [17] = experiment: as above
# Method in brief: as §1
# SK-BR-3 [18] = experiment: as above
# Method in brief: as §1
# BT-474 [19] = experiment: normalised viability (% of control), CellTiter-Blue; higher = more viable cells (100 = DMSO, 0 = benzethonium chloride kill control)
# Method in brief: (§2)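 Plates were quality-checked by Z'-factor and normalised to vehicle (100) and a positive kill control (0). The underlying assay incubated breast cancer cell lines for 72 h on 384-well plates with compound, then added 2.5 µl CellTiter-Blue for 2 h at 37 °C and read at 560/590 nm. The value is normalised viability at a single listed concentration of the series.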
# BT-549 [20] = experiment: as above
# Method in brief: as §2
# CAL-120 [21] = experiment: as above
# Method in brief: as §2
# CAL-148 [22] = experiment: as above
# Method in brief: as §2
# CAL-51 [23] = experiment: as above
# Method in brief: as §2
# CAL-85-1 [24] = experiment: as above
# Method in brief: as §2
# DU-4475 [25] = experiment: as above
# Method in brief: as §2
# HCC1143 [26] = experiment: as above
# Method in brief: as §2
# HCC1599 [27] = experiment: as above
# Method in brief: as §2
# HCC1937 [28] = experiment: as above
# Method in brief: as §2
# HDQ-P1 [29] = experiment: as above
# Method in brief: as §2
# Hs578T [30] = experiment: as above
# Method in brief: as §2
# MDA-MB-231 [31] = experiment: as above
# Method in brief: as §2
# MDA-MB-436 [32] = experiment: as above
# Method in brief: as §2
# MDA-MB-453 [33] = experiment: as above
# Method in brief: as §2
# MDA-MB-468 [34] = experiment: as above
# Method in brief: as §2
# MFM-223 [35] = experiment: as above
# Method in brief: as §2
# SK-BR-3 [36] = experiment: as above
# Method in brief: as §2
SMILES,normalised response (BT-474 [1]) [%],normalised response (BT-549 [2]) [%],normalised response (CAL-120 [3]) [%],normalised response (CAL-148 [4]) [%],normalised response (CAL-51 [5]) [%],normalised response (CAL-85-1 [6]) [%],normalised response (DU-4475 [7]) [%],normalised response (HCC1143 [8]) [%],normalised response (HCC1599 [9]) [%],normalised response (HCC1937 [10]) [%],normalised response (HDQ-P1 [11]) [%],normalised response (Hs578T [12]) [%],normalised response (MCF-10A) [%],normalised response (MDA-MB-231 [13]) [%],normalised response (MDA-MB-436 [14]) [%],normalised response (MDA-MB-453 [15]) [%],normalised response (MDA-MB-468 [16]) [%],normalised response (MFM-223 [17]) [%],normalised response (SK-BR-3 [18]) [%],normalised viability (BT-474 [19]) [%],normalised viability (BT-549 [20]) [%],normalised viability (CAL-120 [21]) [%],normalised viability (CAL-148 [22]) [%],normalised viability (CAL-51 [23]) [%],normalised viability (CAL-85-1 [24]) [%],normalised viability (DU-4475 [25]) [%],normalised viability (HCC1143 [26]) [%],normalised viability (HCC1599 [27]) [%],normalised viability (HCC1937 [28]) [%],normalised viability (HDQ-P1 [29]) [%],normalised viability (Hs578T [30]) [%],normalised viability (MDA-MB-231 [31]) [%],normalised viability (MDA-MB-436 [32]) [%],normalised viability (MDA-MB-453 [33]) [%],normalised viability (MDA-MB-468 [34]) [%],normalised viability (MFM-223 [35]) [%],normalised viability (SK-BR-3 [36]) [%]
O=C1CCC(N2C(=O)c3ccccc3C2=O)C(=O)N1 (stereo not drawn) [Thalidomide] (1 nM),99.2,104,99.3,96.4,93.9,100,95.1,95.5,111,97.7,101,98.2,104,104,101,96.6,98.5,98,96.8,76.9,95.2,115,122,86.2,109,101,100,104,90,110,106,88.7,97,108,105,96.1,102
CN[C@@H]1C[C@H]2O[C@@](C)([C@@H]1OC)n1c3ccccc3c3c4c(c5c6ccccc6n2c5c31)C(=O)N[C@H]4O [UCN-01] (1 nM),97.5,95.5,91.5,105,78.4,102,109,98.7,100,90.9,99,98,102,103,100,99.8,103,102,109,99.2,92,82.9,102,98.9,87.8,128,95.7,118,82.1,69.6,106,92,111,99.3,99.8,108,104
Clc1ccc(Nc2nnc(Cc3ccncc3)c3ccccc23)cc1 [Vatalanib] (1 nM),101,93.2,97.3,102,99.8,102,104,97.1,105,101,103,101,110,99.1,98.9,103,114,108,111,86.8,100,84.3,90.5,99.4,94.3,97.9,89.5,95.2,78.3,91,99.8,87.7,125,99.8,98.8,106,93.2
CCC1=C[C@@H]2CN(C1)Cc1c([nH]c3ccccc13)[C@@](C(=O)OC)(c1cc3c(cc1OC)N(C)[C@H]1[C@@](O)(C(=O)OC)[C@H](OC(C)=O)[C@]4(CC)C=CCN5CC[C@]31[C@@H]54)C2 [Vinorelbine] (1 nM),97.4,106,106,108,102,101,98.9,101,107,95,98.1,97.2,108,107,96.6,102,101,96.5,95.2,104,109,94.2,106,98.1,98.1,102,96.5,90.2,90.8,109,113,93.3,101,86.9,99.3,95.6,95.2
